Key:
[1] = system: poly(U)•poly(A)*poly(U) (RNA, polymer) U/A/U; assay: UV melting at 260 nm; conditions: 35 mM Na+ (25 mM NaCl, 10 mM sodium cacodylate), 0.1 mM Na2EDTA, pH 7.0, D/P 0.6, triplex 30 µM (compound 18 µM), third-strand transition, per base
[2] = system: poly(U)•poly(A)*poly(U) (RNA, polymer) U/A/U; assay: ITC, single set of sites; conditions: 35 mM Na+ (25 mM NaCl, 10 mM sodium cacodylate), 0.1 mM Na2EDTA, pH 7.0, 25 °C, triplex 25 µM, per base
[3] = system: poly(U)•poly(A)*poly(U) (RNA, polymer) U/A/U; assay: absorbance titration, Scatchard, McGhee-von Hippel non-cooperative; conditions: 35 mM Na+ (25 mM NaCl, 10 mM sodium cacodylate), 0.1 mM Na2EDTA, pH 7.0, 25 °C, intrinsic constant per isolated site, per base
[4] = system: poly(U)•poly(A)*poly(U) (RNA, polymer) U/A/U; assay: fluorescence titration, Scatchard, McGhee-von Hippel non-cooperative; conditions: 35 mM Na+ (25 mM NaCl, 10 mM sodium cacodylate), 0.1 mM Na2EDTA, pH 7.0, 25 °C, intrinsic constant per isolated site, per base

Row | Structure (SMILES) | ΔTm' (3→2) [1] [°C] | Ka [2] | Ki [3] | Ki [4]
1 | COc1ccc2cc3[n+](cc2c1OCCCN)CCc1cc2c(cc1-3)OCO2 | 18.1 | 9.73±0.09 × 10^5 M^-1 | 8.65±0.34 × 10^5 M^-1 | 9.5±0.10 × 10^5 M^-1
2 | COc1ccc2cc3[n+](cc2c1OCCCCCCN)CCc1cc2c(cc1-3)OCO2 | 20.5 | 23±0.10 × 10^5 M^-1 | 39.87±0.41 × 10^5 M^-1 | 47.0±0.56 × 10^5 M^-1
3 | COc1ccc2cc3[n+](cc2c1OC)CCc1cc2c(cc1-3)OCO2 | 17.5 | 1.5±0.04 × 10^5 M^-1 | 2.88±0.02 × 10^5 M^-1 | 3.9±0.05 × 10^5 M^-1
